Like-named read-outs stand apart in the source and are kept apart here. *1 amine or outer side, *2 acyl side, *3 side chain or, on linkers, in order; H or OH if unused. Where a SMILES comes first, the peptide text is derived from it. Bridges are numbered along the chain shown (N, C = ends). [ ]: non-standard residue; d: D form. The star is where a group is joined. Pro(trans-4-NH2) = O=C([C@@H]1C[C@@H](N[*:3])CN1[*:1])[*:2]; DOTA = O=C(O)CN1CCN(CC(=O)O)CCN(CC(=O)*)CCN(CC(=O)O)CC1; Hyp = O=C(O)[C@@H]1C[C@@H](O)CN1; 3Pal = N[C@@H](Cc1cccnc1)C(=O)O; Pentanoyl(4-Me) = CC(C)CCC(=O)*; Cit = NC(=O)NCCC[C@H](N)C(=O)O; Suc = O=C(CCC(=O)[*:2])[*:1]; Nva = CCC[C@H](N)C(=O)O; Pentanoyl = CCCCC(=O)*; AEEA = NCCOCCOCC(=O)O
What was measured:
[1] = Plasma stability assay (mouse plasma); type: in vitro ADME; details: mouse plasma (sodium citrate 3.7%), 37°C, LC-MS quantification, read-out: % intact compound remaining after 6h incubation Mouse plasma
Outline: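 Compound from a 0.5 mM DMSO stock was spiked into sodium-citrate human or mouse plasma and incubated at 37°C for 0 and 6 h in duplicate. After protein precipitation with internal standard, intact compound was quantified by UHPLC-Q-TOF MS (positive ESI) against matrix calibration, reported as % remaining after 6 h.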

[2] = molecular target: T1, human uPAR (uPAR-Fc) (Homo sapiens, UniProt Q03405); assay: Surface plasmon resonance (SPR) assay, single cycle kinetics; type: binding; details: pKD category for uPAR SPR activity assay, uPAR-Fc on Protein A-Chip, 25°C, read-out: pKD CAT (converted)
T1 construct: comprising amino acids Leu23-Arg303 according to UniProt entry Q03405.1; purchased R&D Systems 10378-UK-100
T1 sequence (Q03405 23-303): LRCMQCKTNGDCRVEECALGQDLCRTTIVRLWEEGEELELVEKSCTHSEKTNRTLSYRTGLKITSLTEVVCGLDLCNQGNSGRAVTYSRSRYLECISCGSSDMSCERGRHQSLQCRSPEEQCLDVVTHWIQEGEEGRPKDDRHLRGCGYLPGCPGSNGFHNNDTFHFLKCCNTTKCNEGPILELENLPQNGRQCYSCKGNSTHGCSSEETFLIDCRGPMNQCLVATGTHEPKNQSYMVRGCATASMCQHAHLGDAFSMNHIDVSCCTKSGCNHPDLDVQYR
Outline: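 uPAR-Fc (Leu23-Arg303 extracellular domains, human IgG1 Fc) captured on Protein A chip to ~2000 RU; single-cycle kinetics at 25°C in HEPES running buffer pH 7.4 with 0.1% DMSO. KD from double-referenced sensorgrams fitted to 1:1 Langmuir model, reported as pKD.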

remaining at 6 h, 9.8 µM [1] | Kd ([2]; single cycle kinetics) | Kd [2] | Compound
83% | < 1.58 nM | – | CC[C@H](C)[C@@H]1NC(=O)[C@@H](C)NC(=O)[C@@H]2CCCN2C(=O)[C@H](Cc2ccccc2)NC(=O)[C@H](Cc2ccc(O)cc2)NC(=O)[C@H](CCC(N)=O)NC(=O)[C@H](CCCNC(N)=O)NC(=O)[C@@H](NC(=O)[C@H](CC(C)C)NC(=O)CN2CCN(CC(=O)O)CCN(CC(=O)O)CCN(CC(=O)O)CC2)CSSC[C@@H](C(N)=O)NC(=O)[C@H](CC(C)C)NC1=O [UPAR-441, DOTA-Leu-[Cys-Cit-Gln-Tyr-Phe-Pro-ala-Ile-Leu-Cys]-NH2] ({DOTA}-LC[Cit]QYFP[dA]ILC-NH2; disulfide 2-11)
95% | – | < 1.58 nM | CC[C@H](C)[C@@H]1NC(=O)[C@@H](CCCNC(=N)N)NC(=O)[C@@H]2CCCN2C(=O)[C@H](Cc2ccccc2)NC(=O)[C@H](Cc2ccc(O)cc2)NC(=O)[C@H](CCCCNC(=O)CN2CCN(CC(=O)O)CCN(CC(=O)O)CCN(CC(=O)O)CC2)NC(=O)[C@H](CCCNC(N)=O)NC(=O)[C@@H](NC(=O)[C@H](CC(C)C)NC(=O)[C@H](CC(=O)O)NC(C)=O)CSSC[C@@H](C(N)=O)NC(=O)[C@H](CC(C)C)NC1=O [UPAR-306, Ac-Asp-Leu-[Cys-Cit-Lys(DOTA)-Tyr-Phe-Pro-arg-Ile-Leu-Cys]-NH2] (Ac-DLC[Cit]K(DOTA)YFP[dR]ILC-NH2; disulfide 3-12)
> 95% | – | < 1.58 nM | CCC[C@H](NC(=O)CCC(=O)O)C(=O)N[C@H]1CSSC[C@@H](C(N)=O)NC(=O)[C@H](CCC)NC(=O)[C@H]([C@@H](C)CC)NC(=O)[C@@H]2C[C@@H](O)CN2C(=O)[C@@H]2CCCN2C(=O)[C@H](Cc2ccccc2)NC(=O)[C@H](Cc2ccc(O)cc2)NC(=O)[C@H](CCCCNC(=O)CN2CCN(CC(=O)O)CCN(CC(=O)O)CCN(CC(=O)O)CC2)NC(=O)[C@H](CCCNC(N)=O)NC1=O [UPAR-293, HO-Succinyl-Nva-[Cys-Cit-Lys(DOTA)-Tyr-Phe-Pro-Hyp-Ile-Nva-Cys]-NH2] (Suc-[Nva]C[Cit]K(DOTA)YFP[Hyp]I[Nva]C-NH2; disulfide 2-11)
90% | – | < 1.58 nM | CC[C@H](C)[C@@H]1NC(=O)[C@@H]2CCCN2C(=O)[C@@H]2CCCN2C(=O)[C@H](Cc2ccccc2)NC(=O)[C@H](Cc2ccc(O)cc2)NC(=O)[C@H](CCC(N)=O)NC(=O)[C@H](CCCNC(N)=O)NC(=O)[C@@H](NC(=O)[C@H](CC(C)C)NC(=O)COCCOCCNC(=O)CN2CCN(CC(=O)O)CCN(CC(=O)O)CCN(CC(=O)O)CC2)CSSC[C@@H](C(N)=O)NC(=O)[C@H](CC(C)C)NC1=O [UPAR-229, DOTA-O2Oc-Leu-[Cys-Cit-Gln-Tyr-Phe-Pro-Pro-Ile-Leu-Cys]-NHz] ({DOTA-AEEA}-LC[Cit]QYFPPILC-NH2; disulfide 2-11)
91% | – | < 1.58 nM | CCCCC(=O)N[C@H]1CSSC[C@@H](C(N)=O)NC(=O)[C@H](CCC)NC(=O)[C@H]([C@@H](C)CC)NC(=O)[C@@H]2C[C@@H](O)CN2C(=O)[C@@H]2CCCN2C(=O)[C@H](Cc2ccccc2)NC(=O)[C@H](Cc2cccnc2)NC(=O)[C@H](CCCCNC(=O)CN2CCN(CC(=O)O)CCN(CC(=O)O)CCN(CC(=O)O)CC2)NC(=O)[C@H](CCCNC(N)=O)NC1=O [UPAR-138, Pent-[Cys-Cit-Lys(DOTA)-Mpa-Phe-Pro-Hyp-Ile-Nva-Cys]-NH2] (Pentanoyl-C[Cit]K(DOTA)[3Pal]FP[Hyp]I[Nva]C-NH2; disulfide 1-10)
95% | < 1.58 nM | – | CC[C@H](C)[C@@H]1NC(=O)[C@@H]2C[C@@H](NC(=O)CN3CCN(CC(=O)O)CCN(CC(=O)O)CCN(CC(=O)O)CC3)CN2C(=O)[C@@H]2CCCN2C(=O)[C@H](Cc2ccccc2)NC(=O)[C@H](Cc2ccc(O)cc2)NC(=O)[C@H](CCC(N)=O)NC(=O)[C@H](CCCNC(N)=O)NC(=O)[C@@H](NC(=O)CCC(C)C)CSSC[C@@H](C(N)=O)NC(=O)[C@H](CC(C)C)NC1=O [UPAR-389, iHex-[Cys-Cit-Gln-Tyr-Phe-Pro-Tap(DOTA)-Ile-Leu-Cys]-NH2] ({Pentanoyl(4-Me)}-C[Cit]QYFP[Pro(trans-4-NH2)](DOTA)ILC-NH2; disulfide 1-10)
> 95% | – | < 1.58 nM | CC[C@H](C)[C@@H]1NC(=O)[C@@H](C)NC(=O)[C@@H]2CCCN2C(=O)[C@H](Cc2ccccc2)NC(=O)[C@H](Cc2ccc(O)cc2)NC(=O)[C@H](CCCCNC(=O)CN2CCN(CC(=O)O)CCN(CC(=O)O)CCN(CC(=O)O)CC2)NC(=O)[C@H](CCCNC(N)=O)NC(=O)[C@@H](NC(=O)[C@H](CC(C)C)NC(=O)[C@H](CC(=O)O)NC(C)=O)CSSC[C@@H](C(N)=O)NC(=O)[C@H](CC(C)C)NC1=O [UPAR-189, Ac-Asp-Leu-[Cys-Cit-Lys(DOTA)-Tyr-Phe-Pro-ala-Ile-Leu-Cys]-NH2] (Ac-DLC[Cit]K(DOTA)YFP[dA]ILC-NH2; disulfide 3-12)
78% | < 1.58 nM | – | CC[C@H](C)[C@@H]1NC(=O)[C@@H]2CCCN2C(=O)[C@@H]2CCCN2C(=O)[C@H](Cc2ccccc2)NC(=O)[C@H](Cc2ccc(O)cc2)NC(=O)[C@H](CCCCNC(=O)CN2CCN(CC(=O)O)CCN(CC(=O)O)CCN(CC(=O)O)CC2)NC(=O)[C@H](CCCNC(N)=O)NC(=O)[C@@H](NC(=O)CCC(C)C)CSSC[C@@H](C(N)=O)NC(=O)[C@H](CC(C)C)NC1=O [UPAR-382, iHex-[Cys-Cit-Lys(DOTA)-Tyr-Phe-Pro-Pro-Ile-Leu-Cys]-NHz] ({Pentanoyl(4-Me)}-C[Cit]K(DOTA)YFPPILC-NH2; disulfide 1-10)
73% | – | < 1.58 nM | CC[C@H](C)[C@@H]1NC(=O)[C@@H](C)NC(=O)[C@@H]2CCCN2C(=O)[C@H](Cc2ccccc2)NC(=O)[C@H](Cc2ccc(O)cc2)NC(=O)[C@H](CCC(N)=O)NC(=O)[C@H](CCCNC(N)=O)NC(=O)[C@@H](NC(=O)CCC(C)C)CSSC[C@@H](C(N)=O)NC(=O)[C@H](CC(C)C)NC1=O [UPAR-338, iHex-[Cys-Cit-Gln-Tyr-Phe-Pro-ala-Ile-Leu-Cys]-NH2] ({Pentanoyl(4-Me)}-C[Cit]QYFP[dA]ILC-NH2; disulfide 1-10)
87% | < 1.58 nM | – | CCCCC(=O)N[C@H]1CSSC[C@@H](C(N)=O)NC(=O)[C@H](CCC)NC(=O)[C@H]([C@@H](C)CC)NC(=O)[C@@H]2C[C@@H](O)CN2C(=O)[C@@H]2C[C@@H](O)CN2C(=O)[C@H](Cc2ccccc2)NC(=O)[C@H](Cc2ccc(O)cc2)NC(=O)[C@H](CCCCNC(=O)CN2CCN(CC(=O)O)CCN(CC(=O)O)CCN(CC(=O)O)CC2)NC(=O)[C@H](CCCNC(N)=O)NC1=O [UPAR-403, Pent-[Cys-Cit-Lys(DOTA)-Tyr-Phe-Hyp-Hyp-Ile-Nva-Cys]-NH2] (Pentanoyl-C[Cit]K(DOTA)YF[Hyp][Hyp]I[Nva]C-NH2; disulfide 1-10)
71% | – | < 1.58 nM | CC[C@H](C)[C@@H]1NC(=O)[C@@H]2C[C@@H](O)CN2C(=O)[C@@H]2CCCN2C(=O)[C@H](Cc2ccccc2)NC(=O)[C@H](Cc2ccc(O)cc2)NC(=O)[C@H](CCC(N)=O)NC(=O)[C@H](CCCNC(N)=O)NC(=O)[C@@H](NC(=O)CCC(C)C)CSSC[C@@H](C(N)=O)NC(=O)[C@H](CC(C)C)NC1=O [UPAR-174, iHex-[Cys-Cit-Gln-Tyr-Phe-Pro-Hyp-Ile-Leu-Cys]-NH2] ({Pentanoyl(4-Me)}-C[Cit]QYFP[Hyp]ILC-NH2; disulfide 1-10)

Source: EP4610269A1, “UROKINASE PLASMINOGEN ACTIVATOR SURFACE RECEPTOR (UPAR) LIGANDS FOR DIAGNOSTIC OR THERAPEUTIC USE” (3B Pharmaceuticals GmbH, priority 2024, dated 2025)
